These results are taken from paper PMC4384708, “Molecular imaging of angiogenesis after myocardial infarction by ^111In-DTPA-cNGR and ^99mTc-sestamibi dual-isotope myocardial SPECT” (EJNMMI Research, 2015).

A short description of data set [1]: ^99mTc-sestamibi perfusion uptake (SUV) per AHA 17 segment, in vivo dual-isotope micro-SPECT. On the set-up: species or system Swiss mice. The protocol: MI was induced in 10- to 12-week old male Swiss mice by ligation of the left anterior descending coronary artery (LAD) (n = 7), as previously described. The angiogenesis imaging protocol was performed 7 days after the LAD ligation. A group of non-operated male Swiss mice (n = 5) was used as control. A variable number of animals were available for analysis per experiment. For SPECT scans, seven MI mice and five control mice were used while for biodistribution purposes ≥5 MI mice and ≥4 control mice were used. Furthermore, a group of six 10- to 12-week old male Swiss mice were bilaterally, subcutaneously implanted in the flanks with Matrigel (Table 1). […] All animals were held under the guidelines of the animal care facility (Maastricht University). All animal experiments were approved by the Committee for Animal Welfare of Maastricht University.
Mice were anesthetised with isoflurane (induction 2.5%; maintenance; 1.5%), a catheter was placed in the tail vein and the animals were positioned in the micro-SPECT camera (MiLabs, Utrecht, The Netherlands).
U-SPECT-II reconstruction software version 2.38 (MiLabs, Utrecht, The Netherlands) was used to reconstruct images. ^99mTc and ^111In images were reconstructed by selecting the photopeak (PP) and background (BG) windows as indicated in Figure 1.
To allow quantification of radiotracer uptake in vivo, conversion factors (CFs) were determined for the 0.6-mm collimator system in a representative phantom (20 ml) for ^99mTc and/or ^111In. During the SPECT reconstruction, the total amount of counts was distributed over the different voxels, resulting in a counts/voxel expression for the average concentration of counts. Taking into account the voxel volume (Vv), the CFs are calculated using equation (a):a ConversionfactorMBq=ActivityconcentrationMBq/ml/SPECTcountspervoxel/Vvml
The PMOD 2.95 cardiac tool PCARD (PMOD Technologies, Zürich, Switzerland) was used to segment the heart in the 17-segment model according to the American Heart Association (AHA) guidelines. For both the ^99mTc-sestamibi and ^111In-DTPA-cNGR images, the uptake was measured for each segment and expressed as mean standardised uptake value (SUVmean) using equation (b).b SUV=SPECTcountspervoxel×CF/VvMBq/ml×Bodyweightg/InjecteddoseMBq
For body weight, we assumed that 1 g of body weight equalled 1 ml.

In the next data set the test system is CD13. Particulars: cNGR tripeptide vs. linear entity; cited from earlier work. The source says:
In this study, we designed and developed a CD13 molecular imaging probe that allowed sensitive visualisation using micro-SPECT imaging. […] Thereto, the cNGR tripeptide was conjugated with diethylene triamine pentaacetic acid (DTPA), radiolabeled with ^111In and evaluated in a mouse model of myocardial infarction in combination with ^99mTc-sestamibi in dual-isotope micro-SPECT imaging. In order to determine binding spec ...

In the case of `[C-]#[N+]CC(C)(C)OC.[C-]#[N+]CC(C)(C)OC.[C-]#[N+]CC(C)(C)OC.[C-]#[N+]CC(C)(C)OC.[C-]#[N+]CC(C)(C)OC.[C-]#[N+]CC(C)(C)OC.[Tc]` [^99mTc-sestamibi], the SUV came to 1.94 ± 0.36 in data set [1] (segment 1. Basal anterior, MI mice n = 7, 7 days after LAD ligation, mean ± S.E.M.); 1.87 ± 0.34 in data set [1] (segment 1. Basal anterior, healthy control mice n = 5, mean ± S.E.M.); 1.72 ± 0.33 in data set [1] (segment 2. Basal anteroseptal, MI mice n = 7, 7 days after LAD ligation, mean ± S.E.M.); 1.63 ± 0.28 in data set [1] (segment 2. Basal anteroseptal, healthy control mice n = 5, mean ± S.E.M.); 1.38 ± 0.28 in data set [1] (segment 3. Basal inferoseptal, MI mice n = 7, 7 days after LAD ligation, mean ± S.E.M.); 1.54 ± 0.29 in data set [1] (segment 3. Basal inferoseptal, healthy control mice n = 5, mean ± S.E.M.). Besides, the SUV worked out at 1.64 ± 0.24 in data set [1] (segment 4. Basal inferior, MI mice n = 7, 7 days after LAD ligation, mean ± S.E.M.); 1.77 ± 0.28 in data set [1] (segment 4. Basal inferior, healthy control mice n = 5, mean ± S.E.M.); 1.78 ± 0.31 in data set [1] (segment 5. Basal inferolateral, MI mice n = 7, 7 days after LAD ligation, mean ± S.E.M.); 1.68 ± 0.30 in data set [1] (segment 5. Basal inferolateral, healthy control mice n = 5, mean ± S.E.M.); 2.11 ± 0.39 in data set [1] (segment 6. Basal anterolateral, MI mice n = 7, 7 days after LAD ligation, mean ± S.E.M.); 1.95 ± 0.33 in data set [1] (segment 6. Basal anterolateral, healthy control mice n = 5, mean ± S.E.M.). Moreover, the SUV in data set [1] (segment 7. Mid anterior, MI mice n = 7, 7 days after LAD ligation, mean ± S.E.M.) was determined as 1.18 ± 0.26; in data set [1] (segment 7. Mid anterior, healthy control mice n = 5, mean ± S.E.M.), 1.80 ± 0.30; in data set [1] (segment 8. Mid anteroseptal, MI mice n = 7, 7 days after LAD ligation, mean ± S.E.M.), 1.73 ± 0.27; in data set [1] (segment 8. Mid anteroseptal, healthy control mice n = 5, mean ± S.E.M.), 1.67 ± 0.28; in data set [1] (segment 9. Mid inferoseptal, MI mice n = 7, 7 days after LAD ligation, mean ± S.E.M.), 1.82 ± 0.30; in data set [1] (segment 9. Mid inferoseptal, healthy control mice n = 5, mean ± S.E.M.), 1.80 ± 0.34. Further, the SUV in data set [1] (segment 10. Mid inferior, MI mice n = 7, 7 days after LAD ligation, mean ± S.E.M.) worked out at 1.85 ± 0.31; in data set [1] (segment 10. Mid inferior, healthy control mice n = 5, mean ± S.E.M.) it was 1.72 ± 0.28; in data set [1] (segment 11. Mid inferolateral, MI mice n = 7, 7 days after LAD ligation, mean ± S.E.M.), 1.60 ± 0.32; in data set [1] (segment 11. Mid inferolateral, healthy control mice n = 5, mean ± S.E.M.), 1.71 ± 0.25; in data set [1] (segment 12. Mid anterolateral, MI mice n = 7, 7 days after LAD ligation, mean ± S.E.M.), 1.15 ± 0.37; in data set [1] (segment 12. Mid anterolateral, healthy control mice n = 5, mean ± S.E.M.) it was 2.03 ± 0.32. The SUV was 0.49 ± 0.10 in data set [1] (segment 13. Apical anterior, MI mice n = 7, 7 days after LAD ligation, mean ± S.E.M.); 1.64 ± 0.30 in data set [1] (segment 13. Apical anterior, healthy control mice n = 5, mean ± S.E.M.); 1.55 ± 0.25 in data set [1] (segment 14. Apical septal, MI mice n = 7, 7 days after LAD ligation, mean ± S.E.M.); 1.82 ± 0.34 in data set [1] (segment 14. Apical septal, healthy control mice n = 5, mean ± S.E.M.); 1.36 ± 0.35 in data set [1] (segment 15. Apical inferior, MI mice n = 7, 7 days after LAD ligation, mean ± S.E.M.); 1.67 ± 0.28 in data set [1] (segment 15. Apical inferior, healthy control mice n = 5, mean ± S.E.M.). The SUV in data set [1] (segment 16. Apical lateral, MI mice n = 7, 7 days after LAD ligation, mean ± S.E.M.) was 0.64 ± 0.24; in data set [1] (segment 16. Apical lateral, healthy control mice n = 5, mean ± S.E.M.), 1.60 ± 0.30; in data set [1] (segment 17. Apex, MI mice n = 7, 7 days after LAD ligation, mean ± S.E.M.), 0.39 ± 0.17; in data set [1] (segment 17. Apex, healthy control mice n = 5, mean ± S.E.M.), 1.47 ± 0.34.

In the case of “oxidised NAc-Cys-Asn-Gly-Arg-Cys-Gly-Gly-Lys-NH2 (disulfide) [cNGR, cyclic(NAc-Cys-Asn-Gly-Arg-Cys-Gly-Gly-Lys), disulfide-cyclised CD13-homing peptide]”, the “targeting efficacy relative to the linear entity” value in the data set on CD13 is “tenfold higher”.
